pIC50: −log10 of the molar value. Structures can show the parent of a compound that is named as a salt. Numbered stars: 1 amine (or outer) side, 2 acyl side, 3 side chain; on linkers, the order of the positions; unused ones are H or OH. Bridge positions count the residues as written; N and C are the ends. Square brackets hold non-standard residues; d marks the D form. Peptide text beside a SMILES is read from it. * marks the point of attachment. X1 = O=C(C1[C@H]2CCCC[C@H]2C[C@H]1C(=O)[*:2])[C@@H]1CCCN1[*:1]; Oic = O=C(O)[C@@H]1C[C@@H]2CCCC[C@@H]2N1; Pen = CC(C)(S)[C@H](N)C(=O)O; X2 = N[C@@H](CN*)C(=O)O; Sar = CNCC(=O)O
Legend:
Settings in all cases: average IC50
human MASP2 = target: T1, human MASP2 (Homo sapiens, UniProt O00187); assay: Biochemical human MASP2 assay (FRET substrate)
T1 construct: Ig-kappa secretion signal (N, cleaved yes); made in house; host or cells: HEK293 (ATCC No. CRL-1573)
T1 sequence (O00187 297-444): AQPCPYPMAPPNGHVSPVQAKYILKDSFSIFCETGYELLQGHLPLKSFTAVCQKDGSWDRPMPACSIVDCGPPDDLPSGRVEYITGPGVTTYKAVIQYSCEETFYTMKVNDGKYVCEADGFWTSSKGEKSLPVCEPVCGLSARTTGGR
T1 sequence (O00187 445-686): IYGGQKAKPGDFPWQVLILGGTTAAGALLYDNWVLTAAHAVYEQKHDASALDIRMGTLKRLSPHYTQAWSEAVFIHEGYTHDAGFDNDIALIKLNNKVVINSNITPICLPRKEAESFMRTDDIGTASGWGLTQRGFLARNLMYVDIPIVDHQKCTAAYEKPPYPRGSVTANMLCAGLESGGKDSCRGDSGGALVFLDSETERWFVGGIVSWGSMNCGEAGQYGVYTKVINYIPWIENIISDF
Excerpt: 2.1 Recombinant Expression and Protein Production of Recombinant Human MASP1 and MASP2 Active Proteases.
The MASP1 or MASP2 expression vectors were transfected into the HEK293 (ATCC No. CRL-1573) cell line using Lipofectamine LTX® Reagent (Thermo-Fischer), as described by the manufacturer. […] The MASP1 and MASP2 proteins were purified from the conditioned media by affinity chromatography on Ni-NTA Superflow resin (Qiagen) as described by the manufacturer.
2.3 Biochemical Human MASP2 Assay
Recombinant human MASP2 enzyme produced in the HEK 293 cells was diluted in the reaction buffer (50 mM HEPES pH 8,0; 100 mM NaCl; 0.01% CHAPS; 0.5 mM Gluthathione) to the concentration of 20 nM and 25 μl was transferred into each single well of 384-well white microtiter plate (Greiner Bio One 781075). 1 μl of the inhibitor compound solution (dissolved in DMSO, at the corresponding concentration) or pure DMSO as a control was added to the same wells. […] The microtiter plate was incubated for 60-120 min at the temperature of 32 C. The increase of fluorescence intensity was measured in appropriate fluorescence plate reader (e.g. TECAN Ultra) using excitation wavelength of 340 nm and emission wavelength of 490 nm. IC50 values were calculated from percentage of inhibition of human MASP2 activity as a function of test compound concentration.

human MASP1 = target: T2, human MASP1 (Homo sapiens, UniProt P48740); assay: Biochemical human MASP1 assay (FRET substrate)
T2 construct: Ig-kappa secretion signal (N, cleaved yes); made in house; host or cells: HEK293 (ATCC No. CRL-1573)
T2 sequence (P48740 297-448): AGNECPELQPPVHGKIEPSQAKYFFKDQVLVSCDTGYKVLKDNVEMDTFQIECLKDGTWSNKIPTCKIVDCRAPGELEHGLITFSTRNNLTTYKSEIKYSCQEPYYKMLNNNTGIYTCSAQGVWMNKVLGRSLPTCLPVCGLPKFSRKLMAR
T2 sequence (P48740 449-699): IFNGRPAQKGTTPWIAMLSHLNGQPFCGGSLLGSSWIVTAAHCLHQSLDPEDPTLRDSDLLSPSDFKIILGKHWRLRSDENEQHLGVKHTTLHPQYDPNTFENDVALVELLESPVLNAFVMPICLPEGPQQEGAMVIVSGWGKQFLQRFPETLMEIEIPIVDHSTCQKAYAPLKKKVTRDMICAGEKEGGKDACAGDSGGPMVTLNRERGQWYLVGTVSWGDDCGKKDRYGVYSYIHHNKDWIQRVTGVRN

rat C3-[…] = assay: C3 deposition assay, rat serum on mannan-coated plates; format: biochemical
Description: 3. C3 Deposition Assay (Human, Rat, Mouse, Dog, Mini-Pig)
The C3 deposition assay was conducted essentially as described (reference). Multi well plates (Greiner-Nunc 384 Maxi Sorp #464718) were coated over night with Mannan from Saccharomyces cerevisiae (Sigma M7504, 10 μg/mL in 0.05 M carbonate-bicarbonate buffer, pH 9.6) at 4° C. Wells were washed three times with TBS and subsequently incubated for 2 hours with 50 μL of 1% bovine serum albumin (BSA) in Tris-buffered saline (TBS) at 37° C. in order to block non-specific binding. After this step and each of the following incubation steps wells were washed three times with C3 wash buffer (TBS; 0.05% Tween 20; 5 mM CaCl2). […] When appropriately developed the color reaction was stopped by addition of 25 μL of stop solution (Sigma S5814) and quantified on a photometer by measuring absorption at a wavelength of 450 nm. Antibodies were diluted in C3 wash buffer supplemented with 0.5% BSA.

Row | SMILES | pIC50 (human MASP2) | pIC50 (human MASP1) | pIC50 (rat C3-[…])
1 | CC[C@H](C)[C@H](NC(=O)CNC)C(=O)N[C@H]1CSSC(C)(C)[C@@H](C(=O)N[C@H](C(=O)N2CCC[C@H]2C(=O)NC[C@H](N)C(=O)O)[C@@H](C)CC)NC(=O)[C@H]([C@@H](C)CC)NC(=O)[C@@H]2C[C@@H]3CCCC[C@@H]3N2C(=O)[C@@H]2CCCN2C(=O)[C@H](CC(C)C)NC(=O)[C@H](CO)NC(=O)[C@H](CCCNC(=N)N)NC(=O)[C@H](CO)NC1=O [Example 467] (H-[Sar]ICSRSLP[Oic]I[Pen]IP-X2; disulfide 3-11) | 7.26 | 8.18 | 
2 | CC[C@H](C)[C@H](NC(=O)[C@H](C)NC)C(=O)N[C@H]1CSSC(C)(C)[C@@H](C(=O)N[C@H](C(=O)N2CCC[C@H]2C(N)=O)[C@@H](C)CC)NC(=O)[C@H]([C@@H](C)CC)NC(=O)[C@@H]2C[C@@]3(CN2C(=O)[C@@H]2CCCN2C(=O)[C@@H](CC(C)(C)C)NC(=O)[C@H](CO)NC(=O)[C@H](CCCNC(=N)N)NC(=O)[C@H](CO)NC1=O)CC3(F)F (single isomer, unassigned; enantiomer 1) [Example 443] | 7.13 | 9.11 | 
3 | CC[C@H](C)[C@H](NC(=O)[C@H](C)N)C(=O)N[C@H]1CSSC[C@@H](C(=O)N[C@H](C(=O)N2CCC[C@H]2C(=O)N[C@@H](CC(=O)O)C(N)=O)[C@@H](C)CC)N(C)C(=O)[C@H]([C@@H](C)CC)NC(=O)[C@@H]2C[C@@H]3CCCC[C@@H]3N2C(=O)[C@@H]2CCCN2C(=O)[C@H](CC(C)C)NC(=O)[C@H](CO)NC(=O)[C@H](CCCNC(=N)N)NC(=O)[C@H](CO)NC1=O [Example 185, AIC+SRSLP-(Oic)-I-((N-Me)C)+IPD-NH2] | 6.61 | 8.32 | 6.63
4 | [2H][C@@H]1[C@H]([2H])CN2C(=O)[C@H](CC(C)C)NC(=O)[C@H](CO)NC(=O)[C@H](CCCNC(=N)N)NC(=O)[C@H](CO)NC(=O)[C@@H](NC(=O)[C@@H](NC(=O)[C@H](C)N)[C@@H](C)CC)CSSC(C)(C)[C@@H](C(=O)N[C@H](C(=O)N3CCC[C@H]3C(=O)N[C@@H](CC(=O)O)C(=O)O)[C@@H](C)CC)NC(=O)[C@H]([C@@H](C)CC)NC(=O)[C@@H]3C[C@@H]4CCCC[C@@H]4N3C(=O)[C@H]12 [Example 142, N-[(1R,2S,6S,9S,12S,15S,18R,23R,26S,28aS,35aS)-18-[(L-alanyl-L-isoleucyl)amino]-26-[(2S)-butan-2-yl]-12-(3-carbamimidamidopropyl)-9,15-bis(hydroxymethyl)-22,22-dimethyl-6-(2-methylpropyl)-5,8,11,14,17,25,28,35-octaoxo(1,2-^2H2)dotriacontahydro-1H,5H,22H-pyrrolo[2′,1′:13,14][1,2,5,8,11,14,17,20,23,26]dithiaoctaazacyclononacosino[11,10-a]indole-23-carbonyl]-L-isoleucyl-L-prolyl-L-aspartic Acid] | 6.90 | 8.67 | 6.33
5 | CC[C@H](C)[C@H](NC(=O)CNC)C(=O)N[C@H]1CSSC(C)(C)[C@@H](C(=O)N[C@H](C(=O)N2CCC[C@H]2C(N)=O)[C@@H](C)CC)NC(=O)[C@H]([C@@H](C)CC)NC(=O)[C@@H]2C[C@@H]3CCCC[C@@H]3N2C(=O)[C@@H]2CCCN2C(=O)[C@H](CC(C)C)NC(=O)[C@H](CO)NC(=O)[C@H](CCCNC(=N)N)NC(=O)[C@H](CO)NC1=O [Example 109, ((N-Me)G)-IC+SRSLP-(Oic)-I-(Pen)+IP-NH2] (H-[Sar]ICSRSLP[Oic]I[Pen]IP-NH2; disulfide 3-11) | 7.16 | 8.54 | 
6 | CC[C@H](C)[C@H](NC(=O)CNC)C(=O)N[C@H]1CSSC(C)(C)[C@@H](C(=O)N[C@H](C(=O)N2CCC[C@H]2C(=O)N[C@@H](CC(=O)O)C(=O)N[C@@H](CC(=O)O)C(=O)O)[C@@H](C)CC)NC(=O)[C@H]([C@@H](C)CC)NC(=O)[C@@H]2C[C@@H]3CCCC[C@@H]3N2C(=O)[C@@H]2CCCN2C(=O)[C@H](CC(C)C)NC(=O)[C@H](CO)NC(=O)[C@H](CCCNC(=N)N)NC(=O)[C@H](CO)NC1=O [Example 466, ((N-Me)G)-IC+SRSLP-(Oic)-I-(Pen)+IPDD-OH] (H-[Sar]ICSRSLP[Oic]I[Pen]IPDD-OH; disulfide 3-11) | 7.40 | 9.14 | 
7 | CC[C@H](C)[C@H](NC(=O)CNC)C(=O)N[C@H]1CSSC(C)(C)[C@@H](C(=O)N[C@H](C(=O)N2CCC[C@H]2C(N)=O)[C@@H](C)CC)NC(=O)[C@H]([C@@H](C)CC)NC(=O)[C@@H]2C[C@@H]3CCCC[C@@H]3C2C(=O)[C@@H]2CCCN2C(=O)[C@H](CC(C)C)NC(=O)[C@H](CO)NC(=O)[C@H](CCCNC(=N)N)NC(=O)[C@H](CO)NC1=O (stereo partly shown) [Example 67, ((N-Me)G)-IC+SRSLP-(Oic)-I-(Pen)+IP-NH2 (HCl Salt)] (H-[Sar]ICSRSL[X1]I[Pen]IP-NH2; disulfide 3-10) | 7.37 | 8.66 | 
